{"source": "patent US20230312652A1", "about": "“NOVEL PEPTIDES AND USES THEREOF” (Aarhus Universitet, priority 2020, published 2023)", "key": {"[1]": {"assay": "Plasma binding, mouse plasma, ultracentrifugation", "assay_type": "in vitro ADME", "procedure": "For plasma binding, 2 μM P1 or Warfarin (positive control) were added to mouse or human plasma. After 30 minutes incubation at 37° C., samples where ultracentrifuged for 4 hours to generate protein-free samples for LCMS analysis. In parallel, plasma was incubated for 4.5 h to determine total levels after incubation. Plasma binding was calculated as % Bound=100*(1−F/T4.5), where F is concentration of free ligand and T4.5 is the concentration of total ligand after incubation."}, "[2]": {"assay": "Mouse brain homogenate stability", "assay_type": "in vitro ADME", "conditions": "2 μM, read-out: T½ in brain homogenate", "procedure": "Mouse brain homogenate was incubated with 2 μM of P1 or 7-Ethoxycoumarin (positive control of degradation). Enzymatic reactions were stopped at timepoints between 0-240 min and samples analysed by LCMS. For test with protease inhibitors, brain homogenate was pre-incubated for 30 minutes with protease inhibitors prior to incubation with P1. For brain homogenate binding, 2 μM of P1 or propranolol (positive control) were added to mouse brain homogenate and incubated at 37° C. for 30 minutes. To prepare the protein-free samples (F samples) to be used for unbound determination, an aliquot of the pre-incubated matrix containing test compound or control compound was transferred to ultracentrifuge tubes and subjected to ultracentrifugation at 37° C., 35000 rpm for 4 hrs. In parallel, brain homogenate was incubated for 4.5 hrs to determine total levels after incubation."}, "SH-SY5Y cells": {"system": "SH-SY5Y cells", "assay": "Lysosomal acidification in SH-SY5Y cells, LysoSensor Yellow/Blue DND-160", "assay_type": "cell-based, human", "conditions": "1 uM, 4 hours", "procedure": "SH-SY5Y were seeded in poly-L coated black 96 well plate with clear bottom at a density of ˜3×10^4. The following day, the cells were stimulated with 1 uM P1 (SEQ ID NO: 1) for 4 hours and subsequently incubated with LysoSensor™ Yellow/Blue DND-160 (10 uM) for 20 min. Cells were rinsed with PBS and excitation 340 & 380 and emission 535 was read in a plate-reader. A pH calibration curve buffer was likewise measured. Calculation of the fluorescence intensity ratio of excitation (340/380) results in an average whole-cell intraorganellar pH reflective of all LysoSensor™ Yellow/Blue DND-160-labeled organelles combined. Using the generated linear trendline from the standard curve for pH and 340/380 intensity ratio, calculate the intraorganellar pH of samples."}, "CYP450 enzymes": {"system": "CYP450 enzymes", "assay": "Cytochrome P450 inhibition in liver microsomes", "assay_type": "in vitro ADME", "conditions": "dose-range of P1, with or without NADPH", "procedure": "Liver microsomes were prepared with cocktails of known substrates of the respective CYP450 enzymes to evaluate the effects of P1 on enzyme inhibition. For each CYP-enzyme a previously described inhibitor was used as a positive control. Sample solutions were pre-incubated with P1 (10 mM) or inhibitor at 37° C. for ten minutes before addition of NADPH. Enzyme activity was measured in samples containing a dose-range of P1 with or without NAPDH (substrate used by the liver enzymes in detoxification steps). Reactions were incubated for 10 minutes before the reactions were stopped and analysed by LCMS to detect CYP metabolites."}, "[3]": {"system": "HTT in GM04719 fibroblasts", "assay": "Huntingtin levels in Huntington's patient-derived fibroblasts (GM04719), western blotting", "assay_type": "cell-based, human", "procedure": "GM04719 was seeded at 30,000-50,000 per well in a 96-well. The following day, the cells were treated with 1 uM of P1 and incubated at 37° C. and 5% CO2 at timepoints 0-24 hours. Hereafter, the cells were lysed in RIPA lysis buffer containing cOmplete cocktail protease inhibitor. Total Huntingtin levels were analysed using antibody mab2166 (Sigma-Aldrich) by western blotting and normalized to beta-actin. To determine, whether P1 also clears the healthy allele, we further assessed levels of total HTT in fibroblast derived from a healthy individual (GM01650E), bought from Coriell Biobank.\nTo get a direct measurement and further validation of the selective degradation of the disease-allele another study was carried out in GM04719 fibroblasts. Here, at 30,000-50,000 were seeded per well in a 96-well. The following 3 days, the cells were treated with 1 uM of P1 every 24 hour and during this incubated at 37° C. and 5% CO2. 24 hours after third treatment, the cells were lysed in RIPA lysis buffer containing cOmplete cocktail protease inhibitor. Mutated Huntingtin levels were measured using antibody, which only detects the disease-allele (MW1 ab). Total Huntingtin levels were likewise analysed using antibody mab2166 and both were normalized to beta-actin."}, "GRN": {"system": "GRN", "assay": "GRN levels in hippocampus of wild-type mice after 7 days daily SC treatment", "assay_type": "in vivo, mouse", "conditions": "13 mg/kg SC daily for 7 days, sacrificed on day 8", "procedure": "Wild-type mice were injected with a daily dose of 13 mg/kg of P1 (SEQ ID NO: 1) subcutaneously in 4.38 mM L-His, 140 mM NaCl, 0.2% Tween-20 and 1500 IU hyaluronidase (pH 6.15) for 7 days. The mice were sacrificed on day 8. The hippocampus was isolated and lysed using a TissueLyser in RIPA lysis buffer containing cOmplete and phosSTOP. Levels of GRN (ab HPA008763 from Sigma) was validated by western blotting normalized to beta-actin. Student's t-test was used for statistical analysis."}, "[4]": {"assay": "Liver microsome stability, human", "assay_type": "in vitro ADME", "conditions": "2 μM, up to 60 minutes", "procedure": "Reactions were stopped at timepoints between 0-60 min. and samples analysed by LCMS."}}, "note": "Where a SMILES comes first, the peptide text is derived from it."}
{"smiles": "CSCC[C@@H]1NC(=O)[C@H](C(C)C)NC(=O)[C@H](CC(=O)O)NC(=O)[C@H](CCC(=O)O)NC(=O)[C@H](CCC(=O)O)NC(=O)[C@H](Cc2c[nH]cn2)NC(=O)[C@H](CCC(=O)O)NC(=O)[C@H](C(C)C)NC(=O)[C@@H]2CCCN2C(=O)[C@H](CCC(=O)O)NC(=O)[C@H]([C@@H](C)O)NC1=O", "note": "[Peptide P1, [MTEPVEHEEDV]] (cyclo(MTEPVEHEEDV))", "values": [{"measurement": "plasma binding", "setting": "[1]; 2 μM", "result": "very low plasma binding"}, {"measurement": "fraction unbound at 30 min, 2 μM", "setting": "[1]; read-out: compound unbound in plasma", "result": "> 0.75"}, {"measurement": "half-life", "setting": "[2]", "result": 245, "unit": "min"}, {"measurement": "340/380 intensity ratio", "setting": "SH-SY5Y cells", "result": "reduction"}, {"measurement": "drop in lysosomal pH", "setting": "SH-SY5Y cells", "result": "~0.2", "unit": "pH"}, {"measurement": "CYP-inhibition", "setting": "CYP450 enzymes", "result": "no CYP-inhibition effects"}, {"measurement": "reduction of mutated Huntingtin (disease-allele, MW1 antibody)", "setting": "[3]; 1 uM every 24 hour for 3 days", "result": 20, "unit": "%"}, {"measurement": "total Huntingtin (mab2166)", "setting": "[3]; 1 uM every 24 hour for 3 days", "result": "not lowering the total amount of Huntingtin significantly"}, {"measurement": "total HTT levels", "setting": "[3]; 1 uM, 8 hours of stimulation", "result": "reduces total HTT levels"}, {"measurement": "GRN levels in hippocampus", "setting": "GRN", "result": "higher levels of GRN"}, {"measurement": "clearance and stability in liver microsomes", "setting": "[4]", "result": "low clearance and high stability"}]}
